Source: patent US20260137671A1, “PDK4 as a Cell-Aging Intervention Target and Its Use in Chemotherapy and Anticancer” (Shanghai Institute of Nutrition and Health, Chinese Academy …, priority 2022, published 2026)

Tests used:
[1] = test system: MDA-MB-231 breast cancer cells xenografted together with HBF1203 breast stromal cells; test: MDA-MB-231/HBF1203 xenograft, tumor end volume after chemotherapy and/or PDK4-IN; assay type: in vivo, SCID mice; details: PDK4-IN 10.0 mg/kg combined with DOX 1.0 mg/kg i.p.
Procedure: All experimental mouse experiments were carried out in strict accordance with the relevant regulations of the Institutional Animal Care and Use Committee (IACUC), Shanghai Institutes for Biological Sciences, Chinese Academy of Sciences. Immuno-deficient mice ICR SCID mice (body weight about 25 g) aged about 6 weeks were used for animal experiments related to the present disclosure. Stromal cells PSC27 and epithelial cells were mixed at a ratio of 1:4, and each graft contained 1.25×10^6 cells for tissue remodeling. The xenograft tumors were implanted into mice by subcutaneous transplantation, and the animals were euthanized 8 weeks after the end of the transplantation surgery. Tumor volume was calculated according to the following formula: V=(π/6)×(([…])/2)^3 (V, volume; 1, length; w, width).
For pre-clinical chemotherapeutic studies, mice received subcutaneous implantation were given standard laboratory diets. […] The time points were on the first day of the third, fifth and seventh weeks, with a total of 3 cycles of treatment, and each cycle lasted for 2 weeks. After the course of treatment, mouse […] were collected for tumor measurement and histological analysis. […] In order to cause systemic expression of SASP factors induced by chemotherapy, MIT was administered to mice through intravenous infusion according to the above steps and sequence, but the dose was reduced to 0.1 mg/kg body weight/each time (the cumulative dose of MIT received in the whole course of treatment was 0.3 mg/kg body weight) to reduce drug-related toxicity. The chemotherapy experiment ended at the end of the 8th week, and the mice were dissected immediately after sacrifice, and the xenograft tumors were collected and used for pathological system analysis.
To assess the in vivo effects of chemotherapeutic drugs and/or PDK4-IN treatment in different tumor types, the inventors subsequently generated xenografts composed of breast cancer cell line MDA-MB-231 and breast stromal cell line HBF1203 to replicate the preclinical intervention observed in prostate cancer xenografts.

[2] = test system: senescent human stromal cells (PSC27); test: Seahorse XF24 metabolic profiling of senescent stromal cells; assay type: cell-based; parameters: ATP production / basal respiration / maximal respiration: dose or concentration left out as unconfirmed
Procedure: FIG. 26. OCR of stromal cells was measured using an XF24 Extracellular Flux Analyzer. In simple, 1.5 μM oligomycin, 0.5 μM FCCP and 0.5 μM Rot/Ant were injected sequentially in order into each well. The glycolysis rate was calculated as the difference between the maximum rate measured before injection and the last rate measured before glucose injection. All Seahorse data were normalized to cell numbers, with all metabolic parameters automatically calculated by WAVE software equipped in the Seahorse. OCR, oxygen consumption rate. Oligo, oligomycin. FCCP, carbonyl cyanide 4-(trifluoromethoxy) phenylhydrazone. Rot, rotenone. Ant, antimycin. […]
After 6 hours of drug treatment, the cells were simply washed 3 times with PBS, left in the culture medium for 7-˜10 days, and then the subsequent experiments were performed.
Next, the inventors measured the levels of extracellular fluids. […] Among them, HK2 and LDHA are glycolysis-related factors, whereas IDH2, IDH3, OGDH and CS are TCA cycle-involving enzymes. As overexpression of PDK4 per se in normal cells neither caused or abrogated senescence, nor affected the SASP (FIG. 38), the inventors reasoned that senescent cell metabolism was correlated with and likely underpinned by expression of key factors involved in glucose consumption and linked with production of pyruvate, lactate and multiple other metabolites.

[3] = test system: mice implanted with recombinant tissues; test: Survival of tumor-bearing mice in time-extended preclinical cohort (bulky disease, size >2,000 mm^3); assay type: in vivo; details: PDK4-IN treatment alone versus vehicle
Source text: FIG. 74. Curve of bulky DFS plotted against survival time of implantation with recombinant tissues in mice until animal death attributed to advanced bulky disease development. MS, median survival. P values calculated by two-sided log-rank (Mantel-Cox) tests.
Next, the inventors assessed tumor progression consequence by comparing the survival rate of different animal groups in a time-extended preclinical cohort. During tumor surveillance, bulky disease was considered once the tumor burden became prominent (size >2,000 mm^3).

[4] = test system: mice aged 24 to 27 months; test: Lifespan appraisal of late-life mice; assay type: in vivo, C57BL/6 mice; details: PDK4-IN every two weeks, P<0.001 vs Vehicle
Procedure: FIG. 91. Schematic design for lifespan appraisal of mice. Mice aged 24 to 27 months were administered either Vehicle or PDK4-IN every two weeks, with continuous monitoring of their survival and recording of maximum lifespan.
C57BL/6 mice aged 24 to 27 months were administered either Vehicle or PDK4-IN every two weeks intraperitoneally. The median survival of animals in each group was calculated and indicated. ***, P<0.001.
The earliest deaths occurred approximately 2 months after the last physical function test. C57BL/6 mice aged 19 to 21 months were housed at 3-5 animals per cage. Same as the transplanted mice, the mice were sorted by body weight and randomly assigned to each group, and treated in either control (vehicle) or drug (PDK4) group by persons blinded to the design of the preclinical trial. From the age of 24-27 months, the mice were treated with vehicle or PDK4-IN every 2 weeks, […] for 3 consecutive days at each time. During the course of the study, some mice were removed from their original cages in order to minimize the animal housing stress caused by long-term housing in a single cage. RotaRod and hanging tests were performed monthly because these tests were sensitive and noninvasive. […] During the experiment, no mice were excluded due to fighting, accidental death or dermatitis. For biostatistics, a Cox proportional hazard model was used for survival analysis. […]

[5] = test system: cancer cells in tumors (PC3/PSC27 xenografts); test: DNA damage and apoptosis in tumors by IHC (γ-H2AX, cleaved caspase 3); assay type: in vivo, SCID mice; details: for DNA damage and apoptosis in cancer cells: tumors dissected 7 days after initiation of treatment
Source text: FIG. 69. Statistical evaluating values of DNA-damaged cells and apoptotic cells in analyzed tumor specimens, represented as a percentage of cells positively stained by IHC with antibodies against γ-H2AX or caspase 3 (cleaved).
FIG. 70. Representative IHC images of caspase 3 (cleaved) in tumors at the end of therapeutic regimens. Biopsies of placebo-treated animals served as negative controls for drug-treated mice. Scale bar, 100 μm.
Considering the primary in vivo expressive results with MIT and/or PDK4-IN treatment, the inventors next asked how pharmacologically targeting PDK4 could enhance the therapeutic response of tumors. To disclose the possible mechanism(s), the inventors chose to dissect tumors from animals 7 days after initiation of treatment, a timepoint right before the development of resistant colonies.

[6] = senescence-associated change, PDK4-IN treated

O=C1c2ccccc2C(=O)c2c1cccc2-c1cnn(C2CCNCC2)c1 [PDK4-IN]
further decline of tumor volume on the basis of doxorubicin (DOX) [1]: 39.8%
tumor size reduction in total compared to the control group [1]: 69.5%
H^+ (proton) leak [2, 6]: reversed changes
lactate production [2, 6]: reversed changes
non-mitochondrial oxygen consumption [2, 6]: reversed changes
pH fluctuation [2, 6]: reversed changes
ATP production ([2]; senescent cells, PDK4-IN-1): further promoted
basal respiration ([2]; senescent cells, PDK4-IN-1): further promoted
maximal respiration ([2]; senescent cells, PDK4-IN-1): further promoted
survival benefit as single agent [3]: only marginal survival advantage
lifespan during the intervention period [4]: significantly extended the lifespan
caspase 3 cleavage (IHC) ([5]; PDK4-IN added to MIT): further enhanced
DNA damage and apoptosis in cancer cells ([5]; PDK4-IN upon combination with MIT): prominent efficacy in enhancing these therapeutic indices
DNA damage and apoptosis in cancer cells ([5]; single agent): neither caused typical DDR nor induced cell apoptosis
